Experimental data from patent US20070249590A1, “Substituted indolo[2,3-a]pyrrolo[3,4-c]carbazole compounds useful in treating kinase disorders” (priority 2005, published 2007).
pIC50: −log10 of the molar value.

What follows are molecules tested against T1, JAK3 (JH1 and JH2 domain) (Homo sapiens, UniProt P52333) (assay: JAK3 Kinase Assay (ELISA of peptide substrate phosphorylation)). Conditions: purified JAK3 enzyme, 10 μM ATP, biotinylated peptide substrate, 1 hour at room temperature.
T1 sequence (P52333 521-1111 limits assumed): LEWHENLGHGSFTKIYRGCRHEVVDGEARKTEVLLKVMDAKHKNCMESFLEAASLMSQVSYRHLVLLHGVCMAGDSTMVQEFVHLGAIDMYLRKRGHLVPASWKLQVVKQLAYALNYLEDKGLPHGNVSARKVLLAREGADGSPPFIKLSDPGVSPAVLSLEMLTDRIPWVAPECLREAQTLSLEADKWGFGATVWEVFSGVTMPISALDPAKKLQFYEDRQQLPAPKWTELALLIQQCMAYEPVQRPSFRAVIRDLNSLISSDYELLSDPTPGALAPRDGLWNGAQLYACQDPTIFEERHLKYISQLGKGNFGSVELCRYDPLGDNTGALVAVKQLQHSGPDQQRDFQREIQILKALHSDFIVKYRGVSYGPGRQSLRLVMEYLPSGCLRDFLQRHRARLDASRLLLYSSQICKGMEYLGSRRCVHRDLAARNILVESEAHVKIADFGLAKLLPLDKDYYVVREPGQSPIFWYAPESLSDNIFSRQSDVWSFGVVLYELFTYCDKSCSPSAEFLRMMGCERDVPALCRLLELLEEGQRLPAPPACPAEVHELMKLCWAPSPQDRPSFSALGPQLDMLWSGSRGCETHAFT
Format: biochemical
Summary of the method: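 Sf21-baculovirus-expressed JAK3 (JH1+JH2), glutathione-bead purified, with biotinylated peptide substrate (in buffer containing 10 μM ATP) in HEPES pH 7.5/MgCl2/DTT, 1 h RT. Product was captured on Neutravidin, detected with HRP anti-phosphotyrosine (PY99)/TMB, OD 450/650 nm. Triplicate 16-point half-log series from 200 μM gave IC50; otherwise % inhibition at 1 μM.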

Row | SMILES | pIC50
1 | CC1(C)O[C@H]2Cn3c4ccccc4c4c5c(c6c7ccccc7n(c6c43)C[C@@H]2O1)C(=O)NC5 [Cpd 16, 12,13-[(4S,5S)-2,2-dimethyl-[1,3]dioxolo[4,5-b]butan-1,4-yl]-6,7,12,13-tetrahydro-5-oxo-5H-indolo[2,3-a]pyrrolo[3,4-c]carbazole] | 6.98
2 | O=C1NC(=O)c2c1c1c3cc(-c4ccncc4)ccc3n3c1c1c2c2ccccc2n1CC(O)CC3 (stereo not drawn) [Cpd 33, 3-pyridin-4-yl-12,13-(2-hydroxy-butan-1,4-yl)-12,13-dihydro-5,7-dioxo-6H-indolo[2,3-a]pyrrolo[3,4-c]carbazole] | 7.40
3 | O=C1NC(=O)c2c1c1c3ccccc3n3c1c1c2c2ccccc2n1CC(OC(=O)N1CCN(CCc2ccccc2)CC1)CC3 (stereo not drawn) [Cpd 65, 12,13-(2-{[4-(2-phenyl-ethyl)piperazin-1-yl]carbonyloxy}-butan-1,4-yl)-12,13-dihydro-5,7-dioxo-6H-indolo[2,3-a]pyrrolo[3,4-c]carbazole] | 6.00
4 | O=C1NCc2c1c1c3ccccc3n3c1c1c2c2ccccc2n1CC(O)(CO)C3 (stereo not drawn) [Cpd 25, 12,13-(2-hydroxy-2-hydroxymethyl-propan-1,3-yl)-6,7,12,13-tetrahydro-5-oxo-5H-indolo[2,3-a]pyrrolo[3,4-c]carbazole] | 7.54
5 | O=C1NCc2c1c1c3ccccc3n3c1c1c2c2ccccc2n1C[C@H](O)[C@@H](O)C3 [Cpd 18, 12,13-[(2S,3S)-dihydroxy-butan-1,4-yl]-6,7,12,13-tetrahydro-5-oxo-5H-indolo[2,3-a]pyrrolo[3,4-c]carbazole] | 7.49
6 | Cc1ccc(CNC(=O)OC2Cn3c4ccccc4c4c5c(c6c7ccccc7n(c6c43)CC2O)C(=O)NC5=O)o1 (stereo not drawn) [Cpd 86, 12,13-(2-{[(5-methyl-furan-2-yl)methyl]carbamoyloxy}-3-hydroxy-butan-1,4-yl)-12,13-dihydro-5,7-dioxo-6H-indolo[2,3-a]pyrrolo[3,4-c]carbazole] | 7.48
7 | O=C(NCc1ccncc1)OC1Cn2c3ccccc3c3c4c(c5c6ccccc6n(c5c32)CC1O)C(=O)NC4=O (stereo not drawn) [Cpd 89, 12,13-{2-[(pyridin-4-yl-methyl)carbamoyloxy]-3-hydroxy-butan-1,4-yl}-12,13-dihydro-5,7-dioxo-6H-indolo[2,3-a]pyrrolo[3,4-c]carbazole] | 7.57
8 | O=C1NCc2c1c1c3ccccc3n3c1c1c2c2ccccc2n1CC(CO)C3 (stereo not drawn) [Cpd 23, 12,13-(2-hydroxymethyl-propan-1,3-yl)-6,7,12,13-tetrahydro-5-oxo-5H-indolo[2,3-a]pyrrolo[3,4-c]carbazole] | 7.66
9 | CN(C)CCN(C)C(=O)OC1Cn2c3ccccc3c3c4c(c5c6ccccc6n(c5c32)CC1O)C(=O)NC4=O (stereo not drawn) [Cpd 107, 12,13-(2-{[N-methyl-N-(2-dimethylamino-ethyl)]carbamoyloxy}-3-hydroxy-butan-1,4-yl)-12,13-dihydro-5,7-dioxo-6H-indolo[2,3-a]pyrrolo[3,4-c]carbazole] | 6.74
10 | CN(C)CCNC(=O)OC1CCn2c3ccccc3c3c4c(c5c6ccccc6n(c5c32)C1)C(=O)NC4=O (stereo not drawn) [Cpd 50, 12,13-{2-[(2-dimethylamino-ethyl)carbamoyloxy]-butan-1,4-yl}-12,13-dihydro-5,7-dioxo-6H-indolo[2,3-a]pyrrolo[3,4-c]carbazole] | 7.51
11 | O=C(NCCCn1ccnc1)OC1CCn2c3ccccc3c3c4c(c5c6ccccc6n(c5c32)C1)C(=O)NC4=O (stereo not drawn) [Cpd 36, 12,13-{2-[(3-imidazol-1-yl-prop-1-yl)carbamoyloxy]-butan-1,4-yl}-12,13-dihydro-5,7-dioxo-6H-indolo[2,3-a]pyrrolo[3,4-c]carbazole] | 7.52
12 | O=C(NCCCn1ccnc1)OC1Cn2c3ccccc3c3c4c(c5c6ccccc6n(c5c32)CC1O)C(=O)NC4=O (stereo not drawn) [Cpd 91, 12,13-{2-[(3-imidazol-1-yl-prop-1-yl)carbamoyloxy]-3-hydroxy-butan-1,4-yl}-12,13-dihydro-5,7-dioxo-6H-indolo[2,3-a]pyrrolo[3,4-c]carbazole] | 7.36
13 | NS(=O)(=O)c1ccc(CCNC(=O)OC2Cn3c4ccccc4c4c5c(c6c7ccccc7n(c6c43)CC2O)C(=O)NC5=O)cc1 (stereo not drawn) [Cpd 105, 12,13-(2-{[2-(4-sulfonylamino-phenyl)ethyl]carbamoyloxy}-3-hydroxy-butan-1,4-yl)-12,13-dihydro-5,7-dioxo-6H-indolo[2,3-a]pyrrolo[3,4-c]carbazole] | 7.82
14 | O=C(NCCCN1CCOCC1)OC1Cn2c3ccccc3c3c4c(c5c6ccccc6n(c5c32)CC1O)C(=O)NC4=O (stereo not drawn) [Cpd 88, 12,13-{2-[(3-morpholin-4-yl-prop-1-yl)carbamoyloxy]-3-hydroxy-butan-1,4-yl}-12,13-dihydro-5,7-dioxo-6H-indolo[2,3-a]pyrrolo[3,4-c]carbazole] | 6.95

The next lines start with the values.

Row | pIC50 | SMILES
15 | 7.55 | O=C1NC(=O)c2c1c1c3ccccc3n3c1c1c2c2ccccc2n1CC(O)(C(=O)N1CCC(O)CC1)C(O)C3 (stereo not drawn) [Cpd 132, 12,13-{2-[(4-hydroxy-piperidin-1-yl)carbonyl]-2,3-dihydroxy-butan-1,4-yl}-12,13-dihydro-5,7-dioxo-6H-indolo[2,3-a]pyrrolo[3,4-c]carbazole]
16 | 6.97 | CC(C)OCc1ccc2c(c1)c1c3c(c4c5ccccc5n5c4c1n2CC(CO)C5)CNC3=O (stereo not drawn) [Cpd 211, 9-(isopropoxymethyl)-12,13-(2-hydroxymethyl-propan-1,3-yl)-6,7,12,13-tetrahydro-5-oxo-5H-indolo[2,3-a]pyrrolo[3,4-c]carbazole]
17 | 6.00 | COc1ccc(CCNC(=O)OCC2Cn3c4ccccc4c4c5c(c6c7ccccc7n(c6c43)C2)C(=O)NC5)cc1OC (stereo not drawn) [Cpd 161, 12,13-(2-{[2-(3,4-dimethoxy-phenyl)ethyl]carbamoyloxymethyl}-propan-1,3-yl)-6,7,12,13-tetrahydro-5-oxo-5H-indolo[2,3-a]pyrrolo[3,4-c]carbazole]
18 | 7.15 | CC(C)OCc1ccc2c(c1)c1c3c(c4c5cc(Br)ccc5n5c4c1n2CC(CO)C5)C(=O)NC3 (stereo not drawn) [Cpd 209, 3-bromo-9-(isopropoxymethyl)-12,13-(2-hydroxymethyl-propan-1,3-yl)-6,7,12,13-tetrahydro-5-oxo-5H-indolo[2,3-a]pyrrolo[3,4-c]carbazole]
19 | 7.35 | O=C1NCc2c1c1c3ccccc3n3c1c1c2c2ccccc2n1CC(O)(COC(=O)N1CCC(N2CCCC2)CC1)C3 (stereo not drawn) [Cpd 150, 12,13-{2-hydroxy-2-[(4-pyrrolidin-1-yl-piperidin-1-yl)carbonyloxymethyl]-propan-1,3-yl}-6,7,12,13-tetrahydro-5-oxo-5H-indolo[2,3-a]pyrrolo[3,4-c]carbazole]
20 | 5.13 | O=C1NCc2c1c1c3ccccc3n3c1c1c2c2ccccc2n1CCC(OC(=O)N1CCN(c2ccc(O)cc2)CC1)CC3 (stereo not drawn) [Cpd 181, 12,13-(3-{[4-(4-hydroxy-phenyl)piperazin-1-yl]carbonyloxy}-pentan-1,5-yl)-6,7,12,13-tetrahydro-5-oxo-5H-indolo[2,3-a]pyrrolo[3,4-c]carbazole]
21 | 7.62 | O=C1NCc2c1c1c3cc(/C=C/Cn4ccnc4)ccc3n3c1c1c2c2ccccc2n1CC(O)C(O)C3 (stereo not drawn) [Cpd 201]
22 | 7.38 | CN1CCN(CC(=O)Nc2ccc3c(c2)c2c4c(c5c6ccccc6n6c5c2n3CC(O)C(O)C6)CNC4=O)CC1 (stereo not drawn) [Cpd 205, 3-{[(4-methyl-piperazin-1-yl)methylcarbonyl]amino}-12,13-(2,3-dihydroxy-butan-1,4-yl)-6,7,12,13-tetrahydro-5-oxo-5H-indolo[2,3-a]pyrrolo[3,4-c]carbazole]
23 | 7.05 | O=C1NCc2c1c1c3cc(/C=C/n4ccnc4)ccc3n3c1c1c2c2ccccc2n1CC(CO)C3 (stereo not drawn) [Cpd 220, 3-[(2E)-2-1H-imidazol-1-yl-ethenyl]-12,13-(2-hydroxymethyl-propan-1,3-yl)-6,7,12,13-tetrahydro-5-oxo-5H-indolo[2,3-a]pyrrolo[3,4-c]carbazole]
24 | 5.50 | O=C1NCc2c1c1c3cc(Br)ccc3n3c1c1c2c2cc(CN4CCOCC4)ccc2n1CC(CO)C3 (stereo not drawn) [Cpd 208, 3-bromo-9-(morpholin-4-ylmethyl)-12,13-(2-hydroxymethyl-propan-1,3-yl)-6,7,12,13-tetrahydro-5-oxo-5H-indolo[2,3-a]pyrrolo[3,4-c]carbazole]
25 | 6.75 | NC1CCN(C(=O)OCC2(O)Cn3c4ccccc4c4c5c(c6c7ccccc7n(c6c43)C2)C(=O)NC5)CC1 (stereo not drawn) [Cpd 176, 12,13-{2-hydroxy-2-[(4-amino-piperidin-1-yl)carbonyloxymethyl]-propan-1,3-yl}-6,7,12,13-tetrahydro-5-oxo-5H-indolo[2,3-a]pyrrolo[3,4-c]carbazole]
26 | 5.52 | O=C(NC1CCN(Cc2ccccc2)CC1)OC1CCn2c3ccccc3c3c4c(c5c6ccccc6n(c5c32)CC1)C(=O)NC4 (stereo not drawn) [Cpd 187, 12,13-{3-[(1-benzyl-piperidin-4-yl)carbamoyloxy]-pentan-1,5-yl}-6,7,12,13-tetrahydro-5-oxo-5H-indolo[2,3-a]pyrrolo[3,4-c]carbazole]
27 | 6.51 | CN(C)CCSCc1ccc2c(c1)c1c3c(c4c5ccccc5n5c4c1n2CC(O)C(O)C5)CNC3=O (stereo not drawn) [Cpd 199, 3-[(2-dimethylamino-ethyl)thiomethyl]-12,13-(2,3-dihydroxy-butan-1,4-yl)-6,7,12,13-tetrahydro-5-oxo-5H-indolo[2,3-a]pyrrolo[3,4-c]carbazole]
